“Also recorded” adds a separate entry of the source. Like-named read-outs stand apart in the source and are kept apart here.

Series [1] deals with mice. The series is described as follows: in vivo. Conditions: for Ratio i.v. LD50 TA/(.): theophylline relative to compound, Table 2; for tonic convulsions: lethal doses. The method, then:
(§1) Male NMRI mice, weighing 20-26 g, starved for 8 hr. were used. The compounds, dissolved in 0.5M NaOH and 0.85% NaCl-solution (pH 10.6-12.1) were administered as follows:
(§2) (a) intravenously, 0.1 ml/10 g at an injection rate of 0.3 ml per minute
(§3) At least seven dose levels, doses increasing in a geometric progression with a factor 1.2, were examined. Each dose was given to 5 animals. […] The position of extremities in dead animals indicated whether they had died in convulsions or not. The LD50 values±standard error were calculated using probit analysis.

A short description of series [2]: in vivo. Conditions: mouse, in vivo, mice; for LD50 at 336 h: iv, i.v.; for selectivity ratio at 336 h: read-out: Ratio LD50 p.o. / LD50 i.v. Here is the method:
as §1, §2, §3

In series [3] the test system is mice. The series is described as follows: in vivo. As to conditions: theophylline relative to compound, Table 2.
Series [4] is described as follows: in vivo. As to conditions: mouse, in vivo, po, mice, p.o.
In the next series the test system is Guinea-Pig heart. The series is described as follows: Isolated Guinea-Pig Hearts (Langendorff), chronotropic and inotropic potency. As to conditions: relative to theophylline (= 1); for Guinea-Pig heart Potency ratios of theophylline, chronotrop: cardioacceleration; for Guinea-Pig heart Potency ratios of theophylline, inotrop: inotropic. The method, then:
From the bled guinea-pigs, the hearts were immediately removed and perfused with oxygenated Krebs solution at 37° according to Langendorff. The heart was mounted in a thermostatically controlled organ bath (25 ml) containing Krebs solution. A saline-filled, open-end polyethylene catheter was inserted into the right ventricle through the pulmonary artery. The catheter was fixed to the pulmonary artery by a ligature just above the valvular plane. It was connected to a pressure transduser (P23 AC), making it possible to record changes in intraventricular pressure. From these, the contraction frequency was obtained. Drugs were given as single bolus injections into the perfusion solution.
Potency ratios for relaxing effects on isolated bronchial smooth muscle, for cardioacceleration and for i.v. acute toxicity are illustrated. The relation between therapeutic ratios for theophylline and each compound is also calculated (column to the right).

For series [5] the following is noted: theophylline therapy, cited from earlier work.
[6] abbreviates: probit analysis, read-out: LD50 ± SE i.v.
[7] abbreviates: probit analysis, read-out: LD50 ± SE p.o.

Take `CCCn1c(=O)[nH]c(=O)c2[nH]cnc21` [D 4028, 3,7-dihydro-3-propyl-1H-purine-2,6-dione]: in the series with mice [1], the “Ratio i.v. LD50 TA/(.)” value is 1.24. In addition, the tonic convulsions result with mice [1] was “without convulsive effects”. Besides, the LD50 at 336 h came to 157 ± 7.1 mg/kg in the series “in vivo [2]” (setting [6]), 810 µmol/kg in “in vivo [2]” (read-out: LD50 i.v.), 501 ± 54 mg/kg in “in vivo [4]” (setting [7]) and 2550 µmol/kg in the series “in vivo [4]” (read-out: LD50 p.o.). Also, the selectivity ratio at 336 h in “in vivo [2]” is 3.1. The “Ratio p.o. LD50 TA/(.)” value in the series on mice [3] was determined as 0.87. In addition, the “Guinea-Pig heart Potency ratios of theophylline, chronotrop” value with Guinea-Pig heart came out at 2. The “Guinea-Pig heart Potency ratios of theophylline, inotrop” value in the series on Guinea-Pig heart was 2.5.

In the case of `CC(C)Cn1c(=O)[nH]c(=O)c2[nH]cnc21` [D 4030, 3,7-dihydro-3-(2-methylpropyl)-1H-purine-2,6-dione], the “Ratio i.v. LD50 TA/(.)” value with mice [1] turned out to be 1.94. The tonic convulsions result in the series with mice [1] was “without convulsive effects”. The LD50 at 336 h in “in vivo [2]” (setting [6]) is 109 ± 5.9 mg/kg; in “in vivo [2]” (read-out: LD50 i.v.), 520 µmol/kg; in “in vivo [4]” (setting [7]), 304 ± 26 mg/kg; in “in vivo [4]” (read-out: LD50 p.o.), 1450 µmol/kg. Also, the selectivity ratio at 336 h in “in vivo [2]” amounted to 2.8. Besides, the “Ratio p.o. LD50 TA/(.)” value in the series with mice [3] was 1.53. The “Guinea-Pig heart Potency ratios of theophylline, chronotrop” value in the series on Guinea-Pig heart came to 5. Further, the “Guinea-Pig heart Potency ratios of theophylline, inotrop” value in the series with Guinea-Pig heart is reported as 2.

With `CCCCn1c(=O)[nH]c(=O)c2[nH]cnc21` [D 4031, 3-butyl-3,7-dihydro-1H-purine-2,6-dione], the “Ratio i.v. LD50 TA/(.)” value in the series on mice [1] amounted to 1.35. Besides, the tonic convulsions entry in the series with mice [1] is “without convulsive effects”. Moreover, the LD50 at 336 h in the series “in vivo [2]” (setting [6]) was found to be 158 ± 8.8 mg/kg; in “in vivo [2]” (read-out: LD50 i.v.), 750 µmol/kg; in “in vivo [4]” (setting [7]), 408 ± 10.7 mg/kg; in “in vivo [4]” (read-out: LD50 p.o.) it was 1950 µmol/kg. Further, the selectivity ratio at 336 h in the series “in vivo [2]” is 2.6. For the same molecule, the “Ratio p.o. LD50 TA/(.)” value in the series on mice [3] was determined as 1.14. The “Guinea-Pig heart Potency ratios of theophylline, chronotrop” value with Guinea-Pig heart came to 5. Besides, in the series with Guinea-Pig heart, the “Guinea-Pig heart Potency ratios of theophylline, inotrop” value is reported as 2.

Take `Cn1c(=O)c2[nH]cnc2n(C)c1=O` [Theophylline, reference compound]: in the series on mice [1], the tonic convulsions entry is listed as “in lethal doses produced tonic convulsions; also recorded: convulsions which theophylline does”. The major therapeutic effects entry in series [5] (COAD and cardiac disease) was “relax bronchial smooth muscle and stimulate heart muscle”. Also, the toxic side-effects entry in series [5] was “most common are nausea and gastric distress, most serious are convulsions, which may lead to death”.

One may read the LD50 as the dose expected to kill half of the subjects tested.

The values above are taken from patent US4804664A, “Method and pharmaceutical preparation for treating chronic obstructive airway disease and cardiac disease, and intermediates for the preparation of therapeutically active xanthine derivatives” (priority 1978, dated 1989).
